Biological target: T1, FAAH (Homo sapiens, UniProt O00519)
T1 construct: endogenous in cells
T1 sequence (O00519 1-579): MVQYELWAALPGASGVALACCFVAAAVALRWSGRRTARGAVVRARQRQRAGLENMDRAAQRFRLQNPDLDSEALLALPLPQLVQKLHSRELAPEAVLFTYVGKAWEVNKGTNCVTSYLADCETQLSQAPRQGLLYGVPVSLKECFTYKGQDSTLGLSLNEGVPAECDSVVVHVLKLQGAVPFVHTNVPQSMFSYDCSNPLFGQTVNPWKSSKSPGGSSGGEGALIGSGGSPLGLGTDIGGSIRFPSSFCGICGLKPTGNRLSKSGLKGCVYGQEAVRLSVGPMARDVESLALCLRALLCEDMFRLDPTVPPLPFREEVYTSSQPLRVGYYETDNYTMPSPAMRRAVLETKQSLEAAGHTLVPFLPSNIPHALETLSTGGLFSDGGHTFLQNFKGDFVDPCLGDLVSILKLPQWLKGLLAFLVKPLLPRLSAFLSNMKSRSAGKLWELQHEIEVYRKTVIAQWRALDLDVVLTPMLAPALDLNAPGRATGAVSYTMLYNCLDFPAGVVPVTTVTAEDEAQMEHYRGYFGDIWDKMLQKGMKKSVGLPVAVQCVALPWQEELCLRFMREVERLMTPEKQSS
Experiment: sADPL in situ target engagement in cancer cells, FAAH
Type: cell-based
Conditions: inhibitor prior to family-wide probe
Procedure: FIG. 23. In situ Target Engagement. Cancer cells were treated with DMSO as the control, with inhibitor prior to family wide probe to pre-block the active site, or with family-wide probe directly. Then sADPL workflow was applied to read out the CT difference. Serine hydrolase NCEH1 and its specific inhibitor JW480, or FAAH and inhibitor PF3845 were applied. The activity fold change was transformed from CT value with PCR amplification factor 1.91 determined by a standard qPCR curve and the activities were normalized to DMSO control at different cell lysate concentrations. […] To quantitatively measure the target engagement, different dose of JW480 was applied to either its target NCEH1, or off-target MGLL.
As another alternative detection method, sADPL is complementary with gel-based and MS-based detection methods. In this design, the inventors treat the live cell with several family-wide probes. The probes will label all the members of the protein families. Then one could get the labeled proteome after the cell lysis. […]
A summary of this assay is provided below: • 1. […] In the oligo design, the orthogonal forward primers were employed for different antibody to enable the multiplexing real time PCR readout. […]
Two amine modified oligos were conjugated to antibody and streptavidin, respectively. […] A Taqman probe was designed for real time PCR quantification. […]

SMILES: O=C(Nc1cccnc1)N1CCC(Cc2cccc(Oc3ccc(C(F)(F)F)cn3)c2)CC1 [PF3845]
- FAAH activity in inhibitor competition group by sADPL, normalized to DMSO control: bring the activities down to the levels of DMSO controls

Source: US12276654B2, “Chemical probe-dependent evaluation of protein activity and uses thereof” (The University of Chicago, priority 2017, dated 2025)
